# Test system: r(CUG)12-MBNL1 complex
# Test: Inhibition of the r(CUG)12-MBNL1 complex measured by TR-FRET
# Assay type: biochemical
# Conditions: 80 nM RNA, 60 nM MBNL1-His6
IC50 (Table M),IC50 (Table L),Structure (SMILES)
2.5 µM,,CN(C)CCNC(=O)c1ccc(-c2nc3ccc(-c4ccc5nc(-c6ccc(C(=O)N(C)CCCN(C)CCCN(C)C(=O)c7ccc(-c8nc9ccc(-c%10ccc%11nc(-c%12ccc(C(=O)NCCN(C)C)cc%12)[nH]c%11c%10)cc9[nH]8)cc7)cc6)[nH]c5c4)cc3[nH]2)cc1 [Compound 449]
> 200 µM,,CN(C)CC(CN(C)C)Oc1ccc2nc(-c3ccc(-c4nc5ccc(OC(CN(C)C)CN(C)C)cc5[nH]4)cc3)[nH]c2c1 [Compound 184]
,8.9 µM,CN1CCN(CCNC(=O)c2ccc(-c3nc4cc(-c5ccc6[nH]c(-c7ccc(C(=O)NCCN8CCN(C)CC8)cc7)nc6c5)ccc4[nH]3)cc2)CC1 [Compound 117]
24.1 µM,,"CN(C)CCNC(=O)COc1ccc2nc(-c3ccc(-c4nc5ccc(OCC(=O)NCCN(C)C)cc5[nH]4)cc3)[nH]c2c1 [Compound 284, 2,2′-((1,4-phenylenebis(1H-benzo[d]imidazole-2,6-diyl))bis(oxy))bis(N-(2-(dimethylamino)ethyl)acetamide)]"
46.4 µM,,CN(C)CCC#Cc1ccc(-c2nc3cc(-c4ccc5[nH]c(-c6ccc(C#CCCN(C)C)cc6)nc5c4)ccc3[nH]2)cc1 [Compound 386]
69.5 µM,,CN(C)CC(C)(C)COc1ccc(-c2nc3cc(-c4ccc5[nH]c(-c6ccc(OCC(C)(C)CN(C)C)cc6)nc5c4)ccc3[nH]2)cc1 [Compound 376]
78.9 µM,,CN(C)CC(C)(C)COc1ccc2nc(-c3ccc(-c4nc5ccc(OCC(C)(C)CN(C)C)cc5[nH]4)cc3)[nH]c2c1 [Compound 180]
,15.4 µM,"C[N+](C)(C)CCNC(=O)c1ccc2nc(-c3ccc(-c4nc5ccc(C(=O)NCC[N+](C)(C)C)cc5[nH]4)cc3)[nH]c2c1 [Compound 31, 2,2′-((2,2′-(1,4-phenylene)bis(1H-benzo[d]imidazole-6,6′-carbonyl))bis(azanediyl))bis(N,N,N-trimethylethanaminium) chloride]"
3.28 µM,,CN(C)CCNC(=O)c1ccc(-c2nc3cc(-c4ccc5[nH]c(-c6ccc(C(=O)NCCNC(=O)c7ccc(-c8nc9cc(-c%10ccc%11[nH]c(-c%12ccc(C(=O)NCCN(C)C)cc%12)nc%11c%10)ccc9[nH]8)cc7)cc6)nc5c4)ccc3[nH]2)cc1 [Compound 412]
49.1 µM,,"CN(CCNC(=O)c1ccc2nc(-c3ccc(-c4nc5ccc(C(=O)NCCN(C)C[C@H](O)[C@@H](O)[C@H](O)[C@H](O)CO)cc5[nH]4)cc3)[nH]c2c1)CC(O)C(O)C(O)C(O)CO (stereo in doubt) [Compound 175, 2,2′-(1,4-phenylene)bis(N-(2-(methyl((2S,3R,4R,5R)-2,3,4,5,6-pentahydroxyhexyl)amino)ethyl)-1H-benzo[d]imidazole-6-carboxamide)]"
6.8 µM,,CN(C)Cc1cn(-c2ccc3nc(-c4ccc(-c5nc6ccc(-n7cc(CN(C)C)nn7)cc6[nH]5)cc4)[nH]c3c2)nn1 [Compound 247]
,> 200 µM,"CC(C)(C)OC(=O)N1CCN(CCNC(=O)c2ccc3nc(-c4ccc(-c5nc6ccc(C(=O)NCCN7CCN(C(=O)OC(C)(C)C)CC7)cc6[nH]5)cc4)[nH]c3c2)CC1 [Compound 46, di-tert-butyl 4,4′-(((2,2′-(1,4-phenylene)bis(1H-benzo[d]imidazole-6,6′-carbonyl))bis(azanediyl))bis(ethane-2,1-diyl))bis(piperazine-1-carboxylate)]"
,> 200 µM,"Cn1c(-c2ccc(-c3nc4ccc(N)cc4n3C)cc2)nc2ccc(N)cc21 [Compound 85, 2,2′-(1,4-phenylene)bis(1-methyl-1H-benzimidazol-6-amine)]"
> 200 µM,,"COc1c(-c2nc3ccc(SCCCN(C)C)cc3[nH]2)ccc(-c2nc3ccc(SCCCN(C)C)cc3[nH]2)c1OC [Compound 300, 3,3′-(((2,3-dimethoxy-1,4-phenylene)bis(1H-benzo[d]imidazole-2,6-diyl))bis(sulfanediyl))bis(N,N-dimethylpropan-1-amine)]"
93.6 µM,,CN1CC[C@@H](Oc2ccc3nc(-c4ccc(-c5nc6ccc(O)cc6[nH]5)cc4)[nH]c3c2)C1 [Compound 182]
114 µM,,"CN1C(C)(C)CC(Oc2ccc3nc(-c4ccc(-c5nc6ccc(OC7CC(C)(C)N(C)C(C)(C)C7)cc6[nH]5)cc4)[nH]c3c2)CC1(C)C [Compound 183, 1,4-bis(6-((1,2,2,6,6-pentamethylpiperidin-4-yl)oxy)-1H-benzo[d]imidazol-2-yl)benzene]"
,45 µM,CN(C)CCNC(=O)c1ccc2nc(-c3ccc(-c4nc5ccc(C#N)cc5[nH]4)cc3)[nH]c2c1 [Compound 15]

IC50 (Table M),IC50 (Table L),Structure (SMILES)
37.5 µM,,COCCOCCOc1cc(-c2nc3ccc(OCCCN(C)C)cc3[nH]2)ccc1-c1nc2ccc(OCCCN(C)C)cc2[nH]1 [Compound 260]
5.32 µM,,CC(=O)N(CCCCN(C)C(=O)c1ccc(-c2nc3cc(-c4ccc5[nH]c(-c6ccc(C(=O)NCCN(C)C)cc6)nc5c4)ccc3[nH]2)cc1)CC(=O)N(C)[C@@H](C)C(=O)N(C)[C@@H](C)C(=O)N(C)[C@@H](C)C(=O)N(CCCCN(C)C(=O)c1ccc(-c2nc3cc(-c4ccc5[nH]c(-c6ccc(C(=O)NCCN(C)C)cc6)nc5c4)ccc3[nH]2)cc1)CC(N)=O [Compound 418]
,27 µM,CN(C)CCNC(=O)Nc1ccc2nc(-c3ccc(-c4nc5ccc(NC(=O)NCCN(C)C)cc5[nH]4)cc3)[nH]c2c1 [Compound 64]
,> 200 µM,"CCCNC(=O)c1ccc2nc(-c3ccc(-c4nc5ccc(C(=O)NCCC)cc5[nH]4)cc3)[nH]c2c1 [Compound 52, 2,2′-(1,4-phenylene)bis(N-propyl-1H-benzo[d]imidazole-6-carboxamide)]"
> 200 µM,,"CN(C)CCCOc1ccc2nc(-c3cccc(-c4nc5ccc(OCCCN(C)C)cc5[nH]4)c3)[nH]c2c1 [Compound 253, 3,3′-((1,3-phenylenebis(1H-benzo[d]imidazole-2,6-diyl))bis(oxy))bis(N,N-dimethylpropan-1-amine)]"
,> 200 µM,"Cn1c(-c2ccc(N)cc2)nc2cc(-c3ccc4nc(-c5ccc(N)cc5)n(C)c4c3)ccc21 [Compound 121, 1,3′-dimethyl-2,2′-bis(4-aminophenyl)-1H,3′H-5,5′-bibenzimidazole]"
> 200 µM,,CN(C)CCCOc1ccc(-c2nc3cc(-c4ccc5[nH]c(-c6ccc(C(=O)NCCCn7cc(CCCNC(=O)c8ccc(C9=Nc%10cc(-c%11ccc%12[nH]c(-c%13ccc(C(=O)NCCN(C)C)cc%13)nc%12c%11)ccc%10C9)cc8)nn7)cc6)nc5c4)ccc3[nH]2)cc1 [Compound 457]
,12.3 µM,"CNCCNC(=O)c1ccc2nc(-c3ccc(-c4nc5ccc(C(=O)NCCN(C)C)cc5[nH]4)cc3)[nH]c2c1 [Compound 27, N-(2-(dimethylamino)ethyl)-2-(4-(6-((2-(methylamino)ethyl)carbamoyl)-1H-benzo[d]imidazol-2-yl)phenyl)-1H-benzo[d]imidazole-6-carboxamide]"
9.64 µM,,Cc1cc(-c2nc3cc(-c4ccc5[nH]c(-c6cc(C)c(OCCCN(C)C)c(C)c6)nc5c4)ccc3[nH]2)cc(C)c1O [Compound 361]
≥ 200 µM,,c1cc(-c2nc3cc(-c4ccc5[nH]c(-c6ccc(OCCN7CCOCC7)cc6)nc5c4)ccc3[nH]2)ccc1OCCN1CCOCC1 [Compound 351]
69.9 µM,,c1cc2nc(-c3ccc(-c4nc5ccc(OCCCN6CCCC6)cc5[nH]4)cc3)[nH]c2cc1OCCCN1CCCC1 [Compound 295]
82.3 µM,,CN(C)CC(CN(C)C)Oc1ccc(-c2nc3cc(-c4ccc5[nH]c(-c6ccc(O)cc6)nc5c4)ccc3[nH]2)cc1 [Compound 370]
> 200 µM,,CN(C)CCCOc1ccc2nc(-c3ccc(-c4nc5ccccc5[nH]4)cc3)[nH]c2c1 [Compound 246]
78.2 µM,,"CN(C)CCCOc1ccc2nc(-c3ccc(-c4nc5ccc(OCCCN=[N+]=[N-])cc5[nH]4)cc3)[nH]c2c1 [Compound 235, 3-((2-(4-(6-(3-azidopropoxy)-1H-benzo[d]imidazol-2-yl)phenyl)-1H-benzo[d]imidazol-6-yl)oxy)-N,N-dimethylpropan-1-amine]"
62.1 µM,,"NCc1ccc(Oc2ccc3nc(-c4ccc(-c5nc6ccc(Oc7ccc(CN)cc7)cc6[nH]5)cc4)[nH]c3c2)cc1 [Compound 236, (((2,2′-(1,4-phenylene)bis(1H-benzo[d]imidazole-6,2-diyl))bis(oxy))bis(4,1-phenylene))dimethanamine]"
> 200 µM,,CN1C(C)(C)CC(Oc2ccc(-c3nc4cc(-c5ccc6[nH]c(-c7ccc(OC8CC(C)(C)N(C)C(C)(C)C8)cc7)nc6c5)ccc4[nH]3)cc2)CC1(C)C [Compound 366]

Structure (SMILES),IC50 (Table M),IC50 (Table L)
O=[N+]([O-])c1ccc(-c2nc3cc(-c4ccc5[nH]c(-c6ccc([N+](=O)[O-])cc6)nc5c4)ccc3[nH]2)cc1 [Compound 94],,> 200 µM
CN(C)Cc1cn(CCOc2ccc3nc(-c4ccc(-c5nc6ccc(OCCn7cc(CN(C)C)nn7)cc6[nH]5)cc4)[nH]c3c2)nn1 [Compound 227],120 µM,
O=C(N[C@H]1CN2CCC1CC2)c1ccc(-c2nc3cc(-c4ccc5[nH]c(-c6ccc(C(=O)N[C@H]7CN8CCC7CC8)cc6)nc5c4)ccc3[nH]2)cc1 [Compound 342],4.38 µM,
"CN(C)CCNC(=O)c1ccc(-c2nc3ccc(-c4ccc5nc(-c6ccc(C(=O)NCc7cn(CCCNCC(=O)N8CCC[C@H]8C(=O)N8CCC[C@H]8C(=O)N8CCC[C@H]8C(=O)N8CCC[C@H]8C(=O)N(CCCn8cc(CNC(=O)c9ccc(-c%10nc%11ccc(-c%12ccc%13nc(-c%14ccc(C(=O)NCCN(C)C)cc%14)[nH]c%13c%12)cc%11[nH]%10)cc9)nn8)CC(N)=O)nn7)cc6)[nH]c5c4)cc3[nH]2)cc1 [Compound 434, (S)-N-(2-amino-2-oxoethyl)-N-(3-(4-((4-(2′-(4-((2-(dimethylamino)ethyl)carbamoyl)phenyl)-3H,3′H-[5,5′-bibenzo[d]imidazol]-2-yl)benzamido)methyl)-1H-1,2,3-triazol-1-yl)propyl)-1-((3-(4-((4-(2′-(4-((2-(dimethylamino)ethyl)carbamoyl)phenyl)-3H,3′H-[5,5′-bibenzo[d]imidazol]-2-yl)benzamido)methyl)-1H-1,2,3-triazol-1-yl)propyl)glycyl-L-prolyl-L-prolyl-L-prolyl)pyrrolidine-2-carboxamide]",10.5 µM,
"CN(C)CCCOc1ccc2nc(-c3ccc(-c4nc5ccc(OCCCC(F)(F)F)cc5[nH]4)cc3)[nH]c2c1 [Compound 240, N,N-dimethyl-3-((2-(4-(6-(4,4,4-trifluorobutoxy)-1H-benzo[d]imidazol-2-yl)phenyl)-1H-benzo[d]imidazol-6-yl)oxy)propan-1-amine]",71.5 µM,

# — patent US10961202B2, “Bis-benzimidazole compounds and methods of using the same” (THE SCRIPPS RESEARCH INSTITUTE, priority 2017, dated 2021)
